# Experimental data as given in US10479752B2, “Deuterated tetramethyl dioic acids, compositions comprising them and uses thereof” (SYNDROMEX LTD., priority 2011, dated 2019).
# Marks after values point to notes of the source that are not given here.
# How the values were obtained:
# [1] = Comparative oral bioavailability / pharmacokinetic study, single intravenous and oral administration; assay type: in vivo; conditions: rat; for C0 / t1/2 / AUCinf / Cmax / tmax: Mean CV (%); for F (oral bioavailability): 50 mg/kg po vs 5 mg/kg iv, Mean (CV %)
# Experimental: The pharmacokinetic properties and the oral bioavailability were investigated for the following comparative compounds:
# The plasma concentrations of the test items were measured by LC/MS/MS method following single intravenous and oral administration at the doses of 5 mg/kg body weight and 50 mg/kg body weight, respectively. Following intravenous administration small inter-individual variability was observed. Following i.v administration, the highest plasma concentrations were measured at the first sampling time-point (5 minutes) followed by a biphasic continuous decrease. […] The peak concentrations, tmax and the apparent terminal elimination half-lives (t1/2) were the followings:
# The vehicle for oral administration was prepared in advance. Preparation: 1 g of carboxymethylcellulose sodium salt was dissolved in 100 ml of Humaqua. The vehicle was prepared at least 2 days prior to formulation of the test items. The vehicle was stored in a refrigerator when not in use.
# The required amount of test item was weighed on an analytical balance, transferred into a suitable vial. The test item was dissolved in the required volume of N,N-dimethylacetamide (40% of the final volume). Dissolution of the test item was facilitated by gentle mixing by vortex. The solution was diluted with the suitable volume of PEG400 (40% of the final volume) then Salsol A (20% of the final volume). The final concentration of the test item in the solution was 5 mg/ml. The formulations were prepared freshly on the day of administration.
# The required amount of test item was weighed on an analytical balance, transferred into a test tube and mixed with the suitable volume of 1% CMC to achieve the final concentration of 25 mg/ml. The suspension was sonicated twice in bath sonicator for 30 min at 40 C (each round), and left overnight at room temperature. On the following day, the suspension was sonicated again (bath sonicator, 30 min, 40° C.) and further homogenized in a glass/glass homogenizer trying to reaching an homogenous suspension. In spite of the above procedure the quality (homogeneity) of the suspension was not perfect. The suspension was stored at room temperature till administration.
# Species/Strain rat/Wistar (Crl:(WI)BR rats)
# Number of animals: 24 males (at least 32 for cannulation*)
# After the acclimatization period, rats were equipped with a jugular vein cannula under isoflurane anesthesia. The following day the animals were used for the study. In the morning the rats were checked for health status and blood sampling before assigning them into the experimental group.
# The terminal elimination phase was defined on the basis of the last 3-5 measured concentration except rat A4. […] The central volume of distribution (Vc: […]) was approximately equal to the total blood volume. The volume of distribution estimated for the steady state situation (Vss: 97.3-143 ml/kg) remained also small compared to the total extracellular fluid volume (˜300 ml/kg). The clearance was also very small for all experimental compound analogues. The smallest clearance was obtained for Compound 7: 23.2 ml/h/kg.
# [2] = Chemical and isotopic stability as solutions in DMSO/phosphate buffered saline over 48 hours
# [3] = DMSO/PBS solution, 37° C., 24 h
# [4] = DMSO/PBS solution, 37° C., 48 h
# [5] = DMSO/PBS solution, 37° C., 96 h
# [6] = Original Sample (before the stability study)
C0 ([1]; 5 mg/kg iv dose),t1/2 ([1]; 5 mg/kg iv dose),AUCinf ([1]; 5 mg/kg iv),Cmax ([1]; 50 mg/kg po dose),t1/2 ([1]; 50 mg/kg po dose),tmax ([1]; 50 mg/kg po dose),F (oral bioavailability) [1],AUCinf ([1]; 50 mg/kg po),Compound,"GC/MS IE (isotopic enrichment) ([2]; DMSO/PBS solution, 37° C., 0 h) [%]","HPLC Area Percentage ([2]; DMSO/PBS solution, 37° C., 0 h) [%]","HPLC Assay ([2]; DMSO/PBS solution, 37° C., 0 h) [%]","GC/MS IE (isotopic enrichment) ([2]; DMSO/PBS solution, 37° C., 2 h) [%]","HPLC Area Percentage ([2]; DMSO/PBS solution, 37° C., 2 h) [%]","HPLC Assay ([2]; DMSO/PBS solution, 37° C., 2 h) [%]","GC/MS IE (isotopic enrichment) ([2]; DMSO/PBS solution, 37° C., 4 h) [%]","HPLC Area Percentage ([2]; DMSO/PBS solution, 37° C., 4 h) [%]","HPLC Assay ([2]; DMSO/PBS solution, 37° C., 4 h) [%]","GC/MS IE (isotopic enrichment) [2, 3] [%]","HPLC Area Percentage [2, 3] [%]","HPLC Assay [2, 3] [%]",also measured
56.1 (6.2%) μg/ml,2.68 (6.0%) h,124 (23.6%) h * μg/ml,103 (24.2%) μg/ml,2.43 (57.6%) h,3.5 (79.5%) h,69.6 (29.4) %,863 (29.4%) h * μg/ml,"CC(C)(CCCCCCCCCCC(C)(C)CC(=O)O)CC(=O)O [Compound 1″, reference compound]",–,–,–,–,–,–,–,–,–,–,–,–,–
–,–,–,–,–,–,–,–,"[2H]C([2H])(C(=O)O)C(C)(C)CCCCCCCCCCCCC(C)(C)C([2H])([2H])C(=O)O [Compound 5, 3,3,16,16-tetramethyl-1,18-[2-D2,17-D2]octadecanedioic acid]",96.3,98.4,57.0,95.9,98.0,44.6,96.0,98.5,46.3,96.0,98.4,95.3,"GC/MS IE (isotopic enrichment) [2, 4]: 95.5%; HPLC Area Percentage [2, 4]: 98.0%; HPLC Assay [2, 4]: 213.8%*; GC/MS IE (isotopic enrichment) [2, 5]: 96.1%; HPLC Area Percentage [2, 5]: 98.7%; HPLC Assay [2, 5]: 79.8%; analyte recovered, yield ([2]; DMSO/PBS solution, 37° C., summary over the study): about 95%; disenrichment of the product (isotopic stability) ([2]; DMSO/PBS solution, 37° C., throughout the time period of the study): No disenrichment; HPLC Area Percentage [2, 6]: 100.0%"
–,–,–,–,–,–,–,–,"[2H]C([2H])([2H])C(CCCCCCCCCCCCC(C([2H])([2H])[2H])(C([2H])([2H])[2H])C([2H])([2H])C(=O)O)(C([2H])([2H])[2H])C([2H])([2H])C(=O)O [Compound 4, 3,3,16,16-[D16]Tetramethyl-1,18-octadecanedioic acid]",98.6,97.2,70.9,98.4,97.8,65.9,98.4,97.5,53.8,98.4,96.5,93.8,"GC/MS IE (isotopic enrichment) [2, 4]: 98.3%; HPLC Area Percentage [2, 4]: 97.5%; HPLC Assay [2, 4]: 77.6%; stability results overall, in words ([2]; DMSO/PBS solution, 37° C., 48 h study): essentially the same as those for Compound 1; GC/MS IE (isotopic enrichment) [2, 6]: 98.3%; HPLC Area Percentage [2, 6]: 99.2%"
74.6 (6.9%) μg/ml,2.18 (19.1%) h,128 (13.4%) h * μg/ml,143 (41.3%) μg/ml,2.22 (9.9%) h,8 (50.0%) h,124 (28.3) %,1586 (28.3%) h * μg/ml,"CC(C)(CCCCCCCCCCCCC(C)(C)C(=O)O)C(=O)O [Compound 7″, reference compound]",–,–,–,–,–,–,–,–,–,–,–,–,–
